Data published in US8178506B2, “Oligomeric compounds and compositions for use in modulation of small non-coding RNAs” (Regulus Therapeutics Inc., priority 2003, dated 2012).
In the oligonucleotide strings, read from the 5' end, every base follows the letter of its sugar. An asterisk marks phosphorothioate; unmarked linkages are phosphodiester. Other units and linkages are bracketed, terminal groups are in braces. A string of capitals states the bases alone. e = 2'-O-(2-methoxyethyl) (MOE); [5mC] = 5-methylcytosine; d = 2'-deoxy (DNA)

Experiments:
B16-F10 cells = experiment: Cell cycle assay in B16-F10 cells; format: cell-based, mouse; details: 150 nM, 48 hours, relative to untreated control
BJ cells = experiment: Cell cycle assay in BJ cells; format: cell-based, human; details: 200 nM, 48 hours, relative to untreated control
Method: BJ cells were routinely cultured in MEM high glucose with 2 mM L-glutamine and Earle's BSS adjusted to contain 1.5 g/L sodium bicarbonate and supplemented with 10% fetal bovine serum, 0.1 mM non-essential amino acids and 1.0 mM sodium pyruvate (all media and supplements from Invitrogen Life Technologies, Carlsbad, Calif.). B16-F10 cells were routinely cultured in DMEM high glucose (Invitrogen Life Technologies, Carlsbad, Calif.) supplemented with 10% fetal bovine serum (Invitrogen Life Technologies, Carlsbad, Calif.). T47D cells were cultured in DMEM High glucose media (Invitrogen Life Technologies, Carlsbad, Calif.) supplemented with 10% fetal bovine serum. […] Cells were plated on collagen-coated 24-well plates (Falcon-Primaria #3047, BD Biosciences, Bedford, Mass.) at approximately 50,000 cells per well and allowed to attach to wells overnight.
In further studies, additional cell lines were treated with oligomeric compounds targeted against miRNAs to assess the effects of each oligomeric compound on cell cycling. BJ, B16, T47D, and HeLa cells were cultured and transfected as described above. […] T47Dp53 cells are T47D cells that have been transfected with and selected for maintenance of a plasmid that expresses a wildtype copy of the p53 gene (for example, pCMV-p53; Clontech, Palo Alto, Calif.), using standard laboratory procedures. BJ cells were treated with 200 nM of each oligomeric compound, and T47D, T47Dp53, HeLa, and B16 cells were treated with 150 nM of each oligomeric compound. The human foreskin fibroblast BJ cell line represents a non-cancer cell line, while HeLa, T47D, T47Dp53 cells and the mouse melanoma cell line B16-F10 represent cancerous cell lines. For comparison, oligomeric compounds ISIS 183891 (SEQ ID NO: 847) and ISIS 285717 ([…]; herein incorporated as SEQ ID NO: 857), both targeting the kinesin-like 1/Eg5 mRNA, involved in cell cycling, were used as positive controls. The random-mer ISIS 29848 was used as a negative control. Additionally, the oligomeric compounds ISIS Number 25690 ([…]; herein incorporated as SEQ ID NO: 858) and ISIS Number 25691 ([…]; herein incorporated as SEQ ID NO: 859), targeted to nucleotides 3051-3070 and 3085-3104, respectively, of the mRNA encoding the Drosha RNase III (GenBank Accession NM_013235.2, incorporated herein as SEQ ID NO: 860) were also tested. ISIS Number 25690 and ISIS Number 25691 are 5-10-52′-MOE gapmer compounds, 20 nucleotides in length, with phosphorothioate internucleoside linkages throughout the oligomeric compound. All cytidine residues are 5-methylcytidines. Transfections were performed using the methods described herein. Cells were prepared for flow cytometry 48-hours after oligonucleotide treatment. Results of these studies are shown in Table 35, where data are expressed as percentage of cells in each phase relative to the untreated control cells in that phase.

[1] = system: differentiated adipocytes; experiment: Hallmark genes and triglycerides in differentiated adipocytes; format: cell-based, human; details: 250 nM, transfected day nine, measured 12th day post differentiation
Description: The effect of the oligomeric compounds of the present invention targeting miRNAs on the expression of markers of cellular differentiation was examined in differentiated adipocytes.
As previously described, the HSL, aP2, Glut4, and PPARγ genes play important rolls in the uptake of glucose and the metabolism and utilization of fats. Also as previously described, an increase in triglyceride content is another well-established marker for adipocyte differentiation. Human white preadipocytes (Zen-Bio Inc., Research Triangle Park, N.C.) were grown in preadipocyte media (ZenBio Inc.). After the cells reached confluence (approximately three days), they were exposed to differentiation media (Zen-Bio, Inc.) containing a PPAR-γ agonist, IBMX, dexamethasone, and insulin for three days. Cells were then fed Adipocyte Medium (Zen-Bio, Inc.), which was replaced at 2 to 3 day intervals. One day before transfection, 96-well plates were seeded with 3000 cells/well. Cells were then transfected on day nine post-differentiation, according to standard published procedures with 250 nM oligonucleotide in LIPOFECTIN™ (Invitrogen Corporation, Carlsbad, Calif.) (Monia et al., J. Biol. Chem. 1993 268(19):14514-22). Oligomeric compounds were tested in triplicate on each 96-well plate, and the effect of TNF-α, known to inhibit adipocyte differentiation, was also measured in triplicate. Oligomeric compound treatments and transfectant-only negative controls may be measured up to six times per plate. On day twelve post-differentiation, cells were washed and lysed at room temperature, and the expression of the four hallmark genes, HSL, aP2, Glut4, and PPARγ, as well as triglyceride (TG) accumulation were measured in adipocytes transfected with the uniform 2′-MOE phosphorothioate (PS) previously described in Example 13 as well as the chimeric gapmer oligomeric compounds targeting the mir-143 miRNA and the mir-143 pri-miRNA described in Example 16. On day twelve post-differentiation, cells were lysed in a guanadinium-containing buffer and total RNA was harvested. The amount of total RNA in each sample was determined using a Ribogreen Assay (Molecular Probes, Eugene, Oreg.). Real-time PCR was performed on the total RNA using primer/probe sets for the adipocyte differentiation hallmark genes Glut4, HSL, aP2, and PPARγ. Triglyceride levels as well as mRNA levels for each of the four adipocyte differentiation hallmark genes are expressed relative to control levels (control=treatment with ISIS-29848 (SEQ ID NO: 737)).

Substance	% cells in cell cycle phase G1 (B16-F10 cells) [%]	% cells in cell cycle phase G2/M (B16-F10 cells) [%]	% cells in cell cycle phase S (B16-F10 cells) [%]	% cells in cell cycle phase aneuploid (B16-F10 cells) [%]	% cells in cell cycle phase subG1 (B16-F10 cells) [%]	% cells in cell cycle phase G1 (BJ cells) [%]	% cells in cell cycle phase G2/M (BJ cells) [%]	% cells in cell cycle phase S (BJ cells) [%]	% cells in cell cycle phase aneuploid (BJ cells) [%]	% cells in cell cycle phase subG1 (BJ cells) [%]	expression of hallmark marker genes in differentiated adipocytes [1]
328403 (antisense eA*eG*eG*e[5mC]*e[5mC]*dT*dA*dT*dT*d[5mC]*d[5mC]*dT*dG*dT*dA*eG*e[5mC]*eA*eA*eA) [compound 328403]	111	99	88	92	112	102	92	95	114	81	–
CTAGTGGTCCTAAACATTTCAC (chemistry not given here) [ISIS 327878, uniform 2′-MOE PS; targets mir-203]	–	–	–	–	–	–	–	–	–	–	decreased expression of the aP2, HSL, Glut4 and PPARγ marker genes
